Measurements from publication doi:10.64898/2025.12.08.692997v2 (biorxiv, 2025).
Structures can show the parent of a compound that is named as a salt. Where two headings read alike, the source gives them in different places.

Experiments:
[1] = target: T1, human EphB2-His ectodomain - human EphrinB2-Fc ectodomain (EphB2-EphrinB2 tetramer) (Homo sapiens, UniProt P29323+P52799); test: biochemical
[2] = target: T1, human EphB2-His ectodomain - human EphrinB2-Fc ectodomain (EphB2-EphrinB2 tetramer); test: biochemical; remark: listed apart in the source
[3] = target: T1, human EphB2-His ectodomain - human EphrinB2-Fc ectodomain (EphB2-EphrinB2 tetramer); test: biochemical; remark: listed apart in the source
[4] = target: T1, human EphB2-His ectodomain - human EphrinB2-Fc ectodomain (EphB2-EphrinB2 tetramer); test: biochemical; remark: listed apart in the source
[5] = target: T1, human EphB2-His ectodomain - human EphrinB2-Fc ectodomain (EphB2-EphrinB2 tetramer); test: biochemical; remark: listed apart in the source
[6] = target: T1, human EphB2-His ectodomain - human EphrinB2-Fc ectodomain (EphB2-EphrinB2 tetramer); test: biochemical; conditions: EphrinB2-EphB2 IC50 (Absolute, µM)
[7] = target: T1, human EphB2-His ectodomain - human EphrinB2-Fc ectodomain (EphB2-EphrinB2 tetramer); test: biochemical; conditions: EphrinB2-EphB2 IC50 (Relative, µM)
[8] = target: rat EphB1-Fc ectodomain - mouse EphrinB2-His ectodomain (EphB1-EphrinB2) (Rattus norvegicus; Mus musculus, UniProt P09759+P52800); test: biochemical
[9] = target: T1, human EphB2-His ectodomain - human EphrinB2-Fc ectodomain (EphB2-EphrinB2 tetramer); test: biochemical; remark: listed apart in the source
[10] = target: T1, human EphB2-His ectodomain - human EphrinB2-Fc ectodomain (EphB2-EphrinB2 tetramer); test: biochemical; conditions: Octet IC50 data EB2-EphB2 (Absolute)
[11] = target: T1, human EphB2-His ectodomain - human EphrinB2-Fc ectodomain (EphB2-EphrinB2 tetramer); test: biochemical; conditions: Octet IC50 data EB2-EphB2 (Relative)
[12] = target: T1, human EphB2-His ectodomain - human EphrinB2-Fc ectodomain (EphB2-EphrinB2 tetramer); test: biochemical; remark: listed apart in the source
[13] = target: EphrinB2 of mouse pancreatic stellate cells stimulated with mouse EphB2-Fc-His (Mus musculus, UniProt P52800+P54763); test: % pEphrinB2 by IP and immunoblot; type: cell-based
[14] = target: T1, human EphB2-His ectodomain - human EphrinB2-Fc ectodomain (EphB2-EphrinB2 tetramer); test: biochemical; remark: listed apart in the source
[15] = target: T1, human EphB2-His ectodomain - human EphrinB2-Fc ectodomain (EphB2-EphrinB2 tetramer); test: biochemical; remark: listed apart in the source
[16] = target: T1, human EphB2-His ectodomain - human EphrinB2-Fc ectodomain (EphB2-EphrinB2 tetramer); test: biochemical; remark: listed apart in the source
[17] = target: T1, human EphB2-His ectodomain - human EphrinB2-Fc ectodomain (EphB2-EphrinB2 tetramer); test: biochemical; remark: listed apart in the source
[18] = target: T1, human EphB2-His ectodomain - human EphrinB2-Fc ectodomain (EphB2-EphrinB2 tetramer); test: biochemical; remark: listed apart in the source
[19] = target: T1, human EphB2-His ectodomain - human EphrinB2-Fc ectodomain (EphB2-EphrinB2 tetramer); test: biochemical; remark: listed apart in the source

T1 sequence (P52799 28-229): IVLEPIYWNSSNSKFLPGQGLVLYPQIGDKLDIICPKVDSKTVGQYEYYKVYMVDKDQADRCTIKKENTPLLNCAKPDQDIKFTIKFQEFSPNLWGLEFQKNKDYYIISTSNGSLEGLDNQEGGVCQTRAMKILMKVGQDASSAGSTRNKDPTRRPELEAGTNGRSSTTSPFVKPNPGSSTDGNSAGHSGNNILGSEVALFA
T1 sequence (P29323 19-543): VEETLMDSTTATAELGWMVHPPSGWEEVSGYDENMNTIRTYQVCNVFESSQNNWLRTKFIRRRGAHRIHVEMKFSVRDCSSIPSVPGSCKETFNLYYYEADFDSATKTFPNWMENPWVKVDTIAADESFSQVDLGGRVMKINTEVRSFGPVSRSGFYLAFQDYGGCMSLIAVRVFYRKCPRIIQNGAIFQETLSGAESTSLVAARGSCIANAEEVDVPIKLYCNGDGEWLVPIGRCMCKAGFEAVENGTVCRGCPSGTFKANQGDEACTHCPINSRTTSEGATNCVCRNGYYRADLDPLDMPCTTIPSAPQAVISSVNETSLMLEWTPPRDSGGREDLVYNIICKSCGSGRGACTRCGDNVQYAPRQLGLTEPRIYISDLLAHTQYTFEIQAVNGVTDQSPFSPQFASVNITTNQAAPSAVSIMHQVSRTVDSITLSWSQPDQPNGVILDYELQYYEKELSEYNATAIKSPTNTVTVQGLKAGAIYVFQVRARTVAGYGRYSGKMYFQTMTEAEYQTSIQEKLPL
Chain of rat EphB1-Fc ectodomain - mouse EphrinB2-His ectodomain (EphB1-EphrinB2) (P52800 29-232): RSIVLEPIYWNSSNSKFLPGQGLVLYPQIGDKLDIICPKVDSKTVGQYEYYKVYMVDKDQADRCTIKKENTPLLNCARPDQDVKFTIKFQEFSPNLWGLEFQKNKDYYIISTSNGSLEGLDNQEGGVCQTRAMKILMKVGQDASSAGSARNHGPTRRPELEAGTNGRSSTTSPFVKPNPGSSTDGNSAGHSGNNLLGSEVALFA
Chain of rat EphB1-Fc ectodomain - mouse EphrinB2-His ectodomain (EphB1-EphrinB2) (P09759 18-538): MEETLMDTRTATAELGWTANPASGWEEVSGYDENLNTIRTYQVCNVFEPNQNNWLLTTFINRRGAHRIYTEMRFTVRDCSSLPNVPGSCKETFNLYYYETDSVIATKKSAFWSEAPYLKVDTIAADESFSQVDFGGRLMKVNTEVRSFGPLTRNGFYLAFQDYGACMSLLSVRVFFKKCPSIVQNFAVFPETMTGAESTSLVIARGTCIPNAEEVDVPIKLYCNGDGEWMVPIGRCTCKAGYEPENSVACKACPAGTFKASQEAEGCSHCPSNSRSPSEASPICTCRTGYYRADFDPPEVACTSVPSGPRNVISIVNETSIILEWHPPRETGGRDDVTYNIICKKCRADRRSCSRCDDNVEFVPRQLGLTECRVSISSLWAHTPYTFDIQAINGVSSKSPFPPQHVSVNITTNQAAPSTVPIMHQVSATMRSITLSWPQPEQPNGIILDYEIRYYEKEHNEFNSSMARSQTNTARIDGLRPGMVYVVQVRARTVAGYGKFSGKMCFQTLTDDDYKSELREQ
Chain of EphrinB2 of mouse pancreatic stellate cells stimulated with mouse EphB2-Fc-His (P52800 29-336): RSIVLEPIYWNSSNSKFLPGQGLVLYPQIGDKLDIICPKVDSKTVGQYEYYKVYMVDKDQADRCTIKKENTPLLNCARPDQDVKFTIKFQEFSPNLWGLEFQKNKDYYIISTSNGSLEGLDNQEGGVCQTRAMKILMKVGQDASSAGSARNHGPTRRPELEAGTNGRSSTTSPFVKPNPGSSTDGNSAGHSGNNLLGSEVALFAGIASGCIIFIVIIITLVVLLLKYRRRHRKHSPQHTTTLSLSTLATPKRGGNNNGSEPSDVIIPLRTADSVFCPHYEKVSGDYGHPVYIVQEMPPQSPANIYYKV
Chain of EphrinB2 of mouse pancreatic stellate cells stimulated with mouse EphB2-Fc-His (P54763 19-540): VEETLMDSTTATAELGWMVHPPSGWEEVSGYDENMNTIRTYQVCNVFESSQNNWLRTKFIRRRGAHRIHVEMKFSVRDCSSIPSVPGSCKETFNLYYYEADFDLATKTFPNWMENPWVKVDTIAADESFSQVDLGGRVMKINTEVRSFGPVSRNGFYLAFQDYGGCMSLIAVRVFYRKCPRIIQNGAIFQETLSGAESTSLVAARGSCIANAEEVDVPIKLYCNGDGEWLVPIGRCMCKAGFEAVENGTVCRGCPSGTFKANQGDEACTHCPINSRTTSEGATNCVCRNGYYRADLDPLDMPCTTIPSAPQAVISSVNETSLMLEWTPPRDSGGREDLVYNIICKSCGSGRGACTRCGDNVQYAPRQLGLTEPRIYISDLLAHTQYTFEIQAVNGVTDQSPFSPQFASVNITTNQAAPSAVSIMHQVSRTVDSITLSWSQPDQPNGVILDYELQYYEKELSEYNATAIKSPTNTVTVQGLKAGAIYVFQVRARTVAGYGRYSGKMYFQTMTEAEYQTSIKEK

Compound: O=C(O)CN(CCOCCOCCN(CC(=O)O)CC(=O)O)CC(=O)O [compound 2, EGTA sodium salt]
- IC50 [1]: > 3200 nM
- IC50 [2]: > 3200 nM

Compound: Cc1ncc(CO)c(CO)c1O [compound 8, Pyridoxine hydrochloride]
- IC50 [3]: > 100000 nM

Compound: O=C(Oc1cccc2cccnc12)c1ccc(F)cc1 [compound 2, 8-quinolinyl 4-fluorobenzoate]
- IC50 [4]: > 100000 nM
- IC50 [5]: 100000 nM

Compound: CC(=O)Oc1ccccc1C(=O)O [compound 1, Aspirin]
- IC50 [3]: > 100000 nM

Compound: O=S1(=O)CCN(Cc2ccc(O)c3ncccc23)CC1 [QTM . 2 HCl, 4-((8-hydroxyquinolin-1-ium-5-yl)methyl)thiomorpholin-4-ium 1,1-dioxide chloride]
- IC50 [6]: > 1.6 µM
- IC50 [7]: 0.81 µM
- IC50 [8]: > 100000 nM

Compound: Cc1ccnc(NC(c2cccc([N+](=O)[O-])c2)c2ccc3cccnc3c2O)c1 (stereo not drawn) [SW039339]
- IC50 [9]: > 3200 nM

Compound: N[C@@H](Cc1ccc(O)cc1)C(=O)O [compound 10, L-Tyrosine]
- IC50 [3]: > 100000 nM

Compound: Clc1cc2c(c3ncccc13)OCN(Cc1cccnc1)C2 [compound 2, 6-chloro-3-(pyridin-3-ylmethyl)-3,4-dihydro-2H-[1,3]oxazino[5,6-h]quinoline]
- IC50 [10]: 850 nM
- IC50 [11]: 740 nM

Compound: Clc1cc2c(c3ncccc13)OCN(CC1CCCO1)C2 (stereo not drawn) [4a, 6-chloro-3-((tetrahydrofuran-2-yl)methyl)-3,4-dihydro-2H-[1,3]oxazino[5,6-h]quinoline]
- IC50 [10]: 810 nM
- IC50 [11]: 720 nM

Compound: O=C(Oc1c(Cl)cc(Cl)c2cccnc12)c1ccc([N+](=O)[O-])cc1 [4a, 5,7-dichloro-8-quinolinyl 4-nitrobenzoate]
- IC50 [4]: 38000 nM
- IC50 [12]: ~31600 nM

Compound: Oc1ccc(CN2CCOCC2)c2cccnc12 [A19, 5-(morpholinomethyl)quinolin-8-ol]
- IC50 [6]: > 1.6 µM
- IC50 [7]: > 1.6 µM
- IC50 [8]: > 100000 nM

Compound: Clc1cc2c(c3ncccc13)OCN(CCc1ccccc1)C2 [compound 11, 6-chloro-3-phenethyl-3,4-dihydro-2H-[1,3]oxazino[5,6-h]quinoline]
- IC50 [10]: 1150 nM
- IC50 [11]: 1070 nM

Compound: O=C(O)CN(CCN(CC(=O)O)CC(=O)O)CC(=O)O [EDTA]
- IC50 [13]: 1100 nM

Compound: CCc1ccc(CCOc2ccc(CC3SC(=O)NC3=O)cc2)nc1 (stereo not drawn) [compound 7, Pioglitazone hydrochloride]
- IC50 [3]: > 100000 nM

Compound: Nc1nc2ncc(CNc3ccc(C(=O)N[C@@H](CCC(=O)O)C(=O)O)cc3)nc2c(=O)[nH]1 [compound 12, Folic acid]
- IC50 [3]: > 100000 nM

Compound: CC(=O)Nc1ccc(O)cc1 [compound 2, Acetaminophen]
- IC50 [3]: > 100000 nM

Compound: Oc1ccc(CSc2ccccc2)c2cccnc12 [SW160569, G15]
- Ki [14]: 3.73 nM

Compound: CC(c1ccccc1)N1COc2c(cc(Cl)c3cccnc23)C1 (stereo not drawn) [compound 10, 6-chloro-3-(1-phenylethyl)-3,4-dihydro-2H-[1,3]oxazino[5,6-h]quinoline]
- IC50 [10]: 890 nM
- IC50 [11]: 740 nM

Compound: CC1(C)CC(N2COc3c(cc(Cl)c4cccnc34)C2)CC(C)(C)N1 [compound 5, 6-chloro-3-(2,2,6,6-tetramethylpiperidin-4-yl)-3,4-dihydro-2H-[1,3]oxazino[5,6-h]quinoline]
- IC50 [10]: 1740 nM
- IC50 [11]: 1150 nM

Compound: CNC[C@H](O)c1cccc(O)c1 [compound 5, Phenylephrine hydrochloride]
- IC50 [3]: > 100000 nM

Compound: CCCCN1COc2c(cc(Cl)c3cccnc23)C1 [compound 8, 3-butyl-6-chloro-3,4-dihydro-2H-[1,3]oxazino[5,6-h]quinoline]
- IC50 [10]: 1150 nM
- IC50 [11]: 1050 nM

Compound: O=C(O)Cc1ccccc1Nc1c(Cl)cccc1Cl [compound 9, Diclofenac sodium salt]
- IC50 [3]: > 100000 nM

Compound: Clc1cc2c(c3ncccc13)OCN(C1CCCC1)C2 [1b, 6-chloro-3-cyclopentyl-3,4-dihydro-2H-[1,3]oxazino[5,6-h]quinoline]
- IC50 [10]: 1380 nM
- IC50 [11]: 1200 nM

Compound: CC(C)(C)N1COc2c(cc(Cl)c3cccnc23)C1 [compound 3, 3-(tert-butyl)-6-chloro-3,4-dihydro-2H-[1,3]oxazino[5,6-h]quinoline]
- IC50 [10]: 1950 nM
- IC50 [11]: 1780 nM

Compound: Oc1ccc(Cl)c2cccnc12 [compound 3, Cloxiquine]
- IC50 [1]: > 3200 nM
- IC50 [15]: ~3200 nM

Compound: Clc1cc2c(c3ncccc13)OCN(CCC1=CCCCC1)C2 [compound 12, 6-chloro-3-(2-(cyclohex-1-en-1-yl)ethyl)-3,4-dihydro-2H-[1,3]oxazino[5,6-h]quinoline]
- IC50 [10]: 660 nM
- IC50 [11]: 590 nM

Compound: CCOc1cc(C(Nc2cc(C)ccn2)c2ccc3cccnc3c2O)ccc1O (stereo not drawn) [SW039498]
- IC50 [9]: > 3200 nM
- IC50 [16]: > 3200 nM

Compound: CC(C)Cc1ccc(C(C)C(=O)O)cc1 (stereo not drawn) [compound 3, Ibuprofen]
- IC50 [3]: > 100000 nM

Compound: CCN(CC)CC(=O)Nc1c(C)cccc1C [compound 4, Lidocaine hydrochloride monohydrate]
- IC50 [3]: > 100000 nM

Compound: O=C(O)c1ccc(-n2nc(-c3ccccc3O)nc2-c2ccccc2O)cc1 [compound 3, Deferasirox]
- IC50 [17]: > 100000 nM

Compound: CN(C)CCC(c1ccc(Cl)cc1)c1ccccn1 (stereo not drawn) [compound 6, Chloropheniramine maleate]
- IC50 [3]: > 100000 nM

Compound: O=C(O)[C@@H](S)[C@@H](S)C(=O)O [compound 8, Succimer]
- IC50 [18]: ~50000 nM
- IC50 [19]: ~50000 nM

Compound: COCCN(CCCCc1ccc2c(n1)NCCC2)CC[C@H](Nc1ncnc2ccccc12)C(=O)O [compound 9, Bexotegrast]
- IC50 [17]: > 100000 nM

Compound: Clc1cc2c(c3ncccc13)OCN(C1CCCC1)C2 [1c, 6-chloro-3-cyclopentyl-3,4-dihydro-2H-[1,3]oxazino[5,6-h]quinoline]
- IC50 [10]: 850 nM
- IC50 [11]: 760 nM
